These results are taken from ChEMBL document CHEMBL3862031, “Design, synthesis and activity of novel sorafenib analogues bearing chalcone unit” (Bioorg Med Chem Lett, 2016).

For test [1], the system named is MCF7. Briefly: (§1) Cytotoxicity against human MCF7 cells after 72 hrs by MTT assay. The test is classed as functional, cell-based.
Test [2] in a line: as §1. The test is classed as functional, cell-based. Conditions: MCF7, 72 h.
For test [3], the target named is Serine/threonine-protein kinase B-raf (Homo sapiens, UniProt P15056). Briefly: Inhibition of BRAF (unknown origin) using FAM-labeled peptide as substrate after 1 hr by Lanthascreen assay.
In test [4] the target is Vascular endothelial growth factor receptor 2 (Homo sapiens, UniProt P35968). The test can be described thus: Inhibition of VEGFR2 (unknown origin) using FAM-labeled peptide as substrate preincubated for 10 mins followed by substrate addition by mobility shift assay.
The test system of another test is A549. Briefly: (§2) Cytotoxicity against human A549 cells after 72 hrs by MTT assay. The test is classed as functional, cell-based.
A short description of test [5]: as §2. The test is classed as functional, cell-based. Conditions: A549, 72 h.
Test [6] deals with HepG2. The test can be described thus: (§3) Cytotoxicity against human HepG2 cells after 72 hrs by MTT assay. The test is classed as functional, cell-based.
Test [7] can be described thus: as §3. The test is classed as functional, cell-based. Conditions: HepG2, 72 h.
For test [8], the system named is PC-3. The test can be described thus: (§4) Cytotoxicity against human PC3 cells after 72 hrs by MTT assay. The test is classed as functional, cell-based.
Test [9] can be described thus: as §4. It is filed as functional, cell-based. Conditions: PC-3, 72 h.
The test system of test [10] is PC-3. Briefly: Potency index, ratio of sorafenib IC50 to compound IC50 for human PC3 cells. It is filed as functional.
For test [11], the system named is MCF7. The test can be described thus: Potency index, ratio of sorafenib IC50 to compound IC50 for human MCF7 cells. The test is classed as functional.
Test [12] has as its system HepG2. Briefly: Potency index, ratio of sorafenib IC50 to compound IC50 for human HepG2 cells. The test is classed as functional.

Vascular endothelial growth factor receptor 2, sequence (P35968 whole entry): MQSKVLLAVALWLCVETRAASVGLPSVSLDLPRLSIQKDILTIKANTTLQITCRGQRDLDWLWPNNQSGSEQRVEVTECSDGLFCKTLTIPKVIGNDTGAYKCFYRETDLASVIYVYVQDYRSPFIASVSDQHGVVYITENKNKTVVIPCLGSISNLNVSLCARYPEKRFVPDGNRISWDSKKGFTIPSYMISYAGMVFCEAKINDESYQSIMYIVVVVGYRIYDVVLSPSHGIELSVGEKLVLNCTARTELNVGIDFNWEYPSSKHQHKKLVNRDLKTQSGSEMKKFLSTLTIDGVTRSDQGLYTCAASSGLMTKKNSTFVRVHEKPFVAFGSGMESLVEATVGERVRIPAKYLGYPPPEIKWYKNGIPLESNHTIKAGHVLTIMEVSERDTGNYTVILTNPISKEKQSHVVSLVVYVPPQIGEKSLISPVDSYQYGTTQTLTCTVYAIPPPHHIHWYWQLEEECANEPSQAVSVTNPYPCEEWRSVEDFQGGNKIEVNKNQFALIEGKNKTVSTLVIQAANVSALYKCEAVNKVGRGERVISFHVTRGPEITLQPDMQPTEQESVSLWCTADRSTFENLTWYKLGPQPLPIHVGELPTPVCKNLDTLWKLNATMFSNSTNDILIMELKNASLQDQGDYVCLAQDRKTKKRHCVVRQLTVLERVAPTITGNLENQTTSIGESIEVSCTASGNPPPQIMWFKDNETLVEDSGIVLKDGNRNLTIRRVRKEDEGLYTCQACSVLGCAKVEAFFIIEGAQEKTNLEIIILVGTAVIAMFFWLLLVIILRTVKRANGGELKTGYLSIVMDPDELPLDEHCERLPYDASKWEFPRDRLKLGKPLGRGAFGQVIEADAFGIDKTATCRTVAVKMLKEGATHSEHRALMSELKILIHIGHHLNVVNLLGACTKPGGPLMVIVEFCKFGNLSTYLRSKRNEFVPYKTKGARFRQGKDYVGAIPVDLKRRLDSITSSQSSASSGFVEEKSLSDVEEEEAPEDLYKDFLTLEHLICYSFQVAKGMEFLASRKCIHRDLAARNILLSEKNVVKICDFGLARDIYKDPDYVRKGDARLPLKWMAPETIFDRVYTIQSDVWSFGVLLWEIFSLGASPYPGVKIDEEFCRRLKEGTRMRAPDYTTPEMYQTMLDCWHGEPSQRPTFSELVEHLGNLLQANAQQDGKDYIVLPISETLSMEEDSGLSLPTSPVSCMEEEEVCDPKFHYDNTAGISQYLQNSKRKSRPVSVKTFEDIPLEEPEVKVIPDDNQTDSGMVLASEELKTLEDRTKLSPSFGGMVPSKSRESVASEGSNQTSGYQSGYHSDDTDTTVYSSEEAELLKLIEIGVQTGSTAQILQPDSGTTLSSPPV
Serine/threonine-protein kinase B-raf, sequence (P15056 whole entry): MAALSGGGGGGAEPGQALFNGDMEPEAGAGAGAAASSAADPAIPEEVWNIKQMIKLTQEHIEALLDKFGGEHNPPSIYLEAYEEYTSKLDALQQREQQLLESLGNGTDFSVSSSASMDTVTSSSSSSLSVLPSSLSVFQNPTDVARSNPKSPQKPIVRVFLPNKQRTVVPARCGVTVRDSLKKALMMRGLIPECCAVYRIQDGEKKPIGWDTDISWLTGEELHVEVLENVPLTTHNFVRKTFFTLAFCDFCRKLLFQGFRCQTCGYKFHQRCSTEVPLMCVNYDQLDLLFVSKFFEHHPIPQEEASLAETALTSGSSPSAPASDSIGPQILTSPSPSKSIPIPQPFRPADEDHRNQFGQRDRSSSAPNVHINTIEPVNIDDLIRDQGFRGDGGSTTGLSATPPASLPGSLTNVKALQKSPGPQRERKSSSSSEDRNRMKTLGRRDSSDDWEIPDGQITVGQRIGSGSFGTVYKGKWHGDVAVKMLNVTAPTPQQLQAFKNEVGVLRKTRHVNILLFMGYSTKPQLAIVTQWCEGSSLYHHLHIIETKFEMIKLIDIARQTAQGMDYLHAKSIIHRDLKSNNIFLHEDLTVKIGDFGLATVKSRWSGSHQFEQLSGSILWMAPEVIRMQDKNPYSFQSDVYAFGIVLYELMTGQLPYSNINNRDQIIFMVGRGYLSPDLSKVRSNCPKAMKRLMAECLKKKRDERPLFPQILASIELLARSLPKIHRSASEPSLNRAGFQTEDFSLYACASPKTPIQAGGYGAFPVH

Regarding `CNC(=O)c1cc(Oc2ccc(C(=O)/C=C/c3cccc(Br)c3)cc2)ccn1`, the Activity entry in the test on MCF7 [1], in the test on A549, in the test on HepG2 [6] and with PC-3 [8] was “Dose-dependent effect” throughout. Besides, the IC50 in [2] stood at 10.4 µM; in test [3], 2.9 µM; in test [4] it was 0.72 µM; in test [5] it was 9.94 µM; in [7], 2.87 µM; in [9] it was 3.4 µM.
Regarding `CNC(=O)c1cc(Oc2ccc(C(=O)/C=C/c3ccccc3)cc2)ccn1`, the IC50 in [2] stood at 5.96 µM; in test [3], 2.4 µM; in test [4], 1.1 µM; in test [5], 5.04 µM; in test [7] it was 6.64 µM; in test [9] it was 3.17 µM. For the same compound, the “Ratio IC50” value with PC-3 [10] amounted to 1.02.
`CNC(=O)c1cc(Oc2ccc(C(=O)/C=C/c3cc(OC)c(OC)c(OC)c3)cc2)ccn1`: the half-inhibitory concentration (IC50) in test [2] worked out at 3.88 µM; in test [3], 1.8 µM; in test [4], 3.2 µM; in [5] it was 9.5 µM; in [7] it was 0.56 µM; in test [9], 3.15 µM. Besides, the “Ratio IC50” value in the test on MCF7 [11] was 1.03 - 6.14; with PC-3 [10], 1.03 - 6.14; in the test with HepG2 [12] it was 6.14.
Take `CNC(=O)c1cc(Oc2ccc(/C=C/C(=O)c3ccc(Br)cc3)cc2)ccn1`: the IC50 amounted to 7.1 µM in [2], 20.1 µM in test [5], 22 µM in test [7] and 3.56 µM in [9].
Consider `CNC(=O)c1cc(Oc2ccc(/C=C/C(=O)c3ccc([N+](=O)[O-])cc3)cc2)ccn1`, for which the results for the IC50 in test [2] and in test [7] were 54.3 µM and 41.4 µM, respectively.
As for `CNC(=O)c1cc(Oc2ccc(C(=O)/C=C/c3cccc([N+](=O)[O-])c3)cc2)ccn1`, the IC50 in test [2] and in [7] was more than 50 µM in each case.
With `CNC(=O)c1cc(Oc2ccc(C(=O)/C=C/c3ccc(Br)cc3)cc2)ccn1`, the 50% inhibitory concentration (IC50) in test [2] is more than 50 µM; in test [5] it was more than 50 µM; in [7], more than 50 µM; in test [9], 18.5 µM.
With `CNC(=O)c1cc(Oc2ccc(C(=O)/C=C/c3ccc(Cl)c(Cl)c3)cc2)ccn1`, the IC50 worked out at 13.2 µM in [2], 33.7 µM in test [5], 11.4 µM in test [7] and 8.26 µM in test [9].
For `CNC(=O)c1cc(Oc2ccc(C(=O)/C=C/c3ccc(F)cc3)cc2)ccn1`, in that order: 28.5 µM, 18.6 µM, 12.6 µM and 6.14 µM.
For `CNC(=O)c1cc(Oc2ccc(C(=O)/C=C/c3ccc(F)cc3Cl)cc2)ccn1`, in that order: 21.1 µM, 21.1 µM, 7.32 µM and 4.76 µM.
For `CNC(=O)c1cc(Oc2ccc(NC(=O)Nc3ccc(Cl)c(C(F)(F)F)c3)cc2)ccn1` [SORAFENIB], in that order: 3.18 µM, 2.92 µM, 3.44 µM and 3.24 µM.
`CNC(=O)c1cc(Oc2ccc(C(=O)/C=C/c3ccc([N+](=O)[O-])cc3)cc2)ccn1`: the figures for the concentration for half-maximal inhibition (IC50) in test [5] and in test [9] were more than 50 µM and 11.1 µM, respectively.
As to `CNC(=O)c1cc(Oc2ccc(C(=O)/C=C/c3ccc(OC)c(OC)c3OC)cc2)ccn1`, the figures for the 50% inhibitory concentration (IC50) in [2] and in [7] were 2.91 µM and 9.81 µM, respectively.
`CNC(=O)c1cc(Oc2ccc(/C=C/C(=O)c3ccc(F)cc3)cc2)ccn1`: the IC50 in test [2] is 2.05 µM; in [3], more than 50 µM; in test [4] it was more than 50 µM; in test [7], 12.3 µM. Further, the “Ratio IC50” value in the test with MCF7 [11] came out at 1.55.
Take `CNC(=O)c1cc(Oc2ccc(/C=C/C(=O)c3ccc(C)cc3)cc2)ccn1`: the IC50 is 24.9 µM in test [2] and more than 50 µM in test [7].
The corresponding values for `CNC(=O)c1cc(Oc2ccc(/C=C/C(=O)c3ccc(Cl)cc3)cc2)ccn1` are 17.5 µM and 36.6 µM.
On to `CNC(=O)c1cc(Oc2ccc(C(=O)/C=C/c3ccc(Cl)cc3Cl)cc2)ccn1`, for which the concentration for half-maximal inhibition (IC50) in test [2] worked out at 3.99 µM; in [5] it was 9.46 µM; in [7] it was 11.7 µM; in [9], 9.22 µM.
In the case of `CNC(=O)c1cc(Oc2ccc(C(=O)/C=C/c3cccc(Cl)c3Cl)cc2)ccn1`, the IC50 in [5], in test [7] and in [9] was more than 50 µM each time.
As for `CNC(=O)c1cc(Oc2ccc(C(=O)/C=C/c3ccc(C#N)cc3)cc2)ccn1`, the IC50 came out at 9.52 µM in test [2], 26.4 µM in [5], 5.43 µM in [7] and 3.87 µM in [9].
`CNC(=O)c1cc(Oc2ccc(C(=O)/C=C/c3ccc(OC)cc3)cc2)ccn1`: the IC50 in [5] and in [9] was more than 50 µM each time.
